Results on 16 molecules are retold here after article PMC9477487, “Multitarget drugs as potential therapeutic agents for alzheimer’s disease. A new family of 5-substituted indazole derivatives as cholinergic and BACE1 inhibitors” (Journal of Enzyme Inhibition and Medicinal Chemistry, 2022).

Bounds are passed on as bounds.

Experiment [1] can be described thus: Oxygen radical absorbance capacity assay (ORAC-FL). Particulars: for ORAC (Oxygen Radical Absorbance Capacity): pH 7.4. The method, then:
The ORAC-FL method of Ou et al.[37], partially modified by Dávalos et al.[38], was followed, using a FLUOstar Optima (BMG Labtechnologies GmbH, Offenburg, Germany) with 485 excitation and 520 emission filters. 2,2′-Azobis-(amidinopropane) dihydrochloride (AAPH), (±)-6-hydroxy-2,5,7,8-tetramethylchromane-2-carboxylic acid (trolox) and fluorescein (FL) were purchased from Sigma-Aldrich. The reaction was carried out in 75 mM phosphate buffer (pH 7.4) and the final reaction mixture was 200 µL. […] The mixture was pre-incubated for 30 min at 37 °C and then AAPH solution (25 µL, 240 mM) was added rapidly using a multichannel pipette. The microplate was immediately placed in the reader and the fluorescence was recorded every 90 s. for 90 min. The microplate was automatically shaken prior to each reading. Samples were measured at four different concentrations (10^−1 µM). A blank (FL + AAPH in phosphate buffer) instead of the sample solution and four calibration solutions using trolox (10^−1 µM) was also used in each assay. All of the reaction mixtures were prepared in duplicate and at least three independent assays were performed for each sample. Raw data were exported from the Fluostar optima Software to an Excel sheet for further calculations. Antioxidant curves (fluorescence vs. time) were represented and the area under the curve (AUC) is calculated as: AUC =f1/f0+fi/f0+ … +f34/f0+ (f35/f0) where fo = initial fluorescence reading at 0 min and fi = fluorescence reading at time i. The net AUC is obtained by subtracting the AUC of the blank from that of a sample. The relative Trolox equivalent ORAC value is calculated as: Relative ORAC value =[(AUC sample - AUC blank)/(AUCT rolox - AUC blank)](molarity of trolox/molarity of sample)

Experiment [2] deals with T1, AChE from human erythrocytes (Homo sapiens, UniProt P22303).
T1 construct: AChE from human erythrocytes (EC 3.1.1.7); purchased Sigma; host or cells: human erythrocytes (tissue-derived)
T1 sequence (P22303 32-617 isoform P22303-2 limits assumed): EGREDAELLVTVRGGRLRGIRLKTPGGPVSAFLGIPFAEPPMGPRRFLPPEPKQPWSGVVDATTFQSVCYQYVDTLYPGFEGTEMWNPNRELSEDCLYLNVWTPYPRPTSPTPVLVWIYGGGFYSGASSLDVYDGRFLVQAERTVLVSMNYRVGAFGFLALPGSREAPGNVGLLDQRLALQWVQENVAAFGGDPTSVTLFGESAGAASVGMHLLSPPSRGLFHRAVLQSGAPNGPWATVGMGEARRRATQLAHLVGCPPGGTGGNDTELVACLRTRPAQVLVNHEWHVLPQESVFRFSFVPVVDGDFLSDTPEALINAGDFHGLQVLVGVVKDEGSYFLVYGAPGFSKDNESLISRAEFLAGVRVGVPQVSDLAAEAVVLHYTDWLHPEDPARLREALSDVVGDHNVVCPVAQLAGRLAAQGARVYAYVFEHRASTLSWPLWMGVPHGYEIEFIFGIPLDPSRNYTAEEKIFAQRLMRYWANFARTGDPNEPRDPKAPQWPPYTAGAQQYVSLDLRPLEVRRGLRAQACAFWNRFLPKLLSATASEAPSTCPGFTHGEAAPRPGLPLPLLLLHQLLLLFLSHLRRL
As to the kind of experiment: In vitro AChE inhibition assay (Ellman). The settings on record: for IC50: mean ± SEM, 3 experiments, acetylthiocholine substrate; for inhibition at 10 µM: 10 µM compound, read-out: AChE percentage of inhibition at 10 µM. It is filed as biochemical. The method, then:
(§1) AChE from human erythrocytes (EC 3.1.1.7) (min. 500 units/mg protein in buffered aqueous solution) and BuChE from human serum (EC 3.1.1.8) (3 units/mg protein, lyophilised powder) were purchased from Sigma.
(§2) Compounds were evaluated in 100 mM phosphate buffer pH 8.0 at 30 °C, using acetylthiocholine and butyrylthiocholine (0.4 mM) as substrates, respectively. In both cases, 5,5-dithio-bis(2-nitrobenzoic) acid (DTNB, Ellman’s reagent, 0.2 mM) was used and the values of IC50 were calculated by UV spectroscopy from the absorbance changes at 412 nm. Experiments were performed in triplicate.
(DTNB colorimetry detects thiols as they appear.)

The next experiment concerns the target T2, BuChE from human serum (Homo sapiens, UniProt P06276).
T2 construct: BuChE from human serum (EC 3.1.1.8); purchased Sigma; host or cells: human serum (tissue-derived)
As to the kind of experiment: In vitro BuChE inhibition assay (Ellman). It is filed as biochemical. The settings on record: for IC50: mean ± SEM, 3 experiments, butyrylthiocholine substrate; for inhibition at 10 µM / BuChE percentage of inhibition at 10 µM: 10 µM compound; for inhibition at 10 µM: read-out: BuChE percentage of inhibition at 10 µM. Here is the method:
as §1, §2

Another experiment has as its target T3, BACE1 (Homo sapiens, UniProt P56817).
T3 construct: purchased Invitrogen
As to the kind of experiment: BACE1 enzymatic FRET assay. It is filed as biochemical. The settings on record: for IC50: pH 4.5, mean ± SEM; for inhibition at 10 µM: pH 4.5, 10 µM compound, read-out: BACE1 percentage of inhibition at 10 µM. The method, then:
The BACE1 ([…]) assay was carried out according to the manufacturer’s described protocol which is available from Invitrogen[36].
Briefly, BACE1 in vitro assays were carried out using fluorescence resonance energy transfer (FRET). An APP-based peptide substrate (rhodamine-EVNLDAEFK-quencher, Km of 20 μM) carrying the Swedish mutation and containing rhodamine as a fluorescence donor and a quencher acceptor at each end was used. The intact substrate is weakly fluorescent and becomes highly fluorescent upon enzymatic cleavage. The assays were conducted in 50 mM sodium acetate buffer, pH 4.5, at a final enzyme concentration of 1 U/mL. Inhibitor screening was performed at 10 μM. The mixture was incubated for 60 min at 25 °C under dark conditions and then stopped with 2.5 M sodium acetate. Fluorescence was measured with a FLUOstar Optima (BMG Labtechnologies GmbH, Offenburg, Germany) microplate reader at 545 nm excitation and 585 nm emission. The assay kit was validated by the manufacturer.

The next experiment has as its target T4, BuChE (Homo sapiens, UniProt P06276).
T4 construct: BuChE from human serum (EC 3.1.1.8); purchased Sigma; host or cells: human serum (tissue-derived)
In words: Kinetic study of BuChE inhibition (Lineweaver-Burk plots). It is filed as biochemical. The method, then: To investigate the mechanism of action of the compounds on AChE or BuChE, a kinetic analysis was performed. The experiments were carried out using combinations of four substrate concentrations and three inhibitor concentrations. Double-reciprocal Lineweaver–Burk plots of the data obtained, in which each point is the mean of three different experiments, were analysed.
Competitive inhibitors have the same y-intercept as uninhibited enzymes (since Vmax is unaffected by competitive inhibitors the inverse of Vmax also doesn’t change), but there are different slopes and x-intercepts. Non-competitive inhibition produces plots with the same x-intercept as uninhibited enzyme (Km is unaffected) but different slopes and y-intercepts. Uncompetitive inhibition causes different intercepts on both the y- and x-axes, but the same slope. Mixed inhibitors cause intersects above or below the x-axes.
The Ki, values were determined by fitting the kinetic data to a competitive, non-competitive, or mixed inhibition model by nonlinear regression analysis using GraphPad Prism[35].

T3 sequence (P56817 46-501): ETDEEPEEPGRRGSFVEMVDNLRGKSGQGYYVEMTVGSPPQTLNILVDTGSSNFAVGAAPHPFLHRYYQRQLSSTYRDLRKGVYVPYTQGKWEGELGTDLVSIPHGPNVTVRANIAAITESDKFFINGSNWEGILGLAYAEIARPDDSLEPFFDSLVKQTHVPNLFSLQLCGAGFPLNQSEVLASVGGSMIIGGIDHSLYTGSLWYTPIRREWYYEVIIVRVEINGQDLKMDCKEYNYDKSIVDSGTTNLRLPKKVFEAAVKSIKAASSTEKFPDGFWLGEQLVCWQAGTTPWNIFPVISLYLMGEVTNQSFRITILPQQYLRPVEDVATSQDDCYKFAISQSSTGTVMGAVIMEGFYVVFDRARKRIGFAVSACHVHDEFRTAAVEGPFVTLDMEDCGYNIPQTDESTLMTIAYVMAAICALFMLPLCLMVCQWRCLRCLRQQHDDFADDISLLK
T2 sequence (P06276 29-602): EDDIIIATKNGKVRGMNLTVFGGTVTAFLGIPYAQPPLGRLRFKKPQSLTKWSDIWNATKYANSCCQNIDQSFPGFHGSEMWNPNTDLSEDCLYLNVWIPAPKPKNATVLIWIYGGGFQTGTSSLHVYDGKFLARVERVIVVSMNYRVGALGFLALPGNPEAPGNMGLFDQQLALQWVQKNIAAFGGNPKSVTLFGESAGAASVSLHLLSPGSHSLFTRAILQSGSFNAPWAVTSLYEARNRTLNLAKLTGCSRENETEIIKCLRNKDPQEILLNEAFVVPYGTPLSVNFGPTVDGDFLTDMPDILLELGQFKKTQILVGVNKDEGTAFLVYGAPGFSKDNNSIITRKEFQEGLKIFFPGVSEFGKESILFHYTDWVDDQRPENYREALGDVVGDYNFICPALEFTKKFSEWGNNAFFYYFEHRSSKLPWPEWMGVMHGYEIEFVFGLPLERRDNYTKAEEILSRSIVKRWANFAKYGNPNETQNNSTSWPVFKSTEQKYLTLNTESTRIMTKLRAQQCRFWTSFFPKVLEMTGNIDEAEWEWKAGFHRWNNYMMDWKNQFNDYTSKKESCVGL
T4 sequence (P06276 29-602): as above

For `Clc1cccc(COc2nn(Cc3cccc4ccccc34)c3ccc(NCCCN4CCCCC4)cc23)c1Cl` [Compound 5], the “ORAC (Oxygen Radical Absorbance Capacity)” value (from here on “ORAC”) in experiment [1] is reported as 0.8 ± 0.1 μmol of Trolox equivalents/μmol of tested compound. Further, the IC50 in experiment [2] was above 10 µM; at BuChE from human serum, above 10 µM; at BACE1 it was 2.7 ± 0.1 µM.
In the case of `O=C(Nc1ccc2c(c1)c(OCc1ccccc1)nn2Cc1ccccc1)c1cccc(Cl)c1Cl` [Compound 7], the “ORAC” value in experiment [1] is listed as 0 μmol of Trolox equivalents/μmol of tested compound. The half-inhibitory concentration (IC50) in experiment [2] was 7.6 ± 0.3 µM; on BuChE from human serum, above 10 µM. For the same molecule, the inhibition at 10 µM on BACE1 was 60%.
`CCN(CC)C(=O)Nc1ccc2c(c1)c(OCc1cccc3ccccc13)nn2Cc1ccccc1` [Compound 8]: in experiment [1], the “Antioxidant properties in relation to Trolox” value (shortened to “Antioxidant properties”) is recorded as “higher than 60%” and the “ORAC” value was 0.9 ± 0.1 μmol of Trolox equivalents/μmol of tested compound. Moreover, in experiment [2], the inhibition at 10 µM was 29% and the IC50 is above 10 µM. Also, on BuChE from human serum, the IC50 is above 10 µM. The IC50 against BACE1 is 9.1 ± 0.5 µM.
Consider `CN(C(=O)Nc1ccc2c(c1)c(OCc1cccc3ccccc13)nn2Cc1ccc(Cl)cc1)c1ccccc1` [Compound 9], for which, in experiment [1], the “Antioxidant properties” value is reported as “higher than 60%” and the “ORAC” value is 0.6 ± 0.1 μmol of Trolox equivalents/μmol of tested compound. This molecule also showed an IC50 in experiment [2] above 10 µM. On BuChE from human serum, this molecule registered an IC50 above 10 µM. Further, on BACE1, the inhibition at 10 µM was 29% and the IC50 is above 10 µM.
Regarding `O=C(Nc1ccc2c(c1)c(OCc1cccc3ccccc13)nn2Cc1ccc(Cl)c(Cl)c1)N(c1ccccc1)c1ccccc1` [Compound 10], the “ORAC” value in experiment [1] is reported as 0.2 ± 0.1 μmol of Trolox equivalents/μmol of tested compound. Besides, the inhibition at 10 µM in experiment [2] was determined as 28%; on BACE1 it was 10%. Moreover, the IC50 (in experiment [2]; at BuChE from human serum; against BACE1) was above 10 µM in each case.
Regarding `CN1CCN(C(=O)Nc2ccc3c(c2)c(OCc2ccccc2)nn3Cc2cccc(Cl)c2Cl)CC1` [Compound 11], in experiment [1], the “Antioxidant properties” value is recorded as “higher than 60%” and the “ORAC” value is recorded as 1.1 ± 0.1 μmol of Trolox equivalents/μmol of tested compound. Besides, the IC50 in experiment [2] was above 10 µM. Further, at BuChE from human serum, the inhibition at 10 µM is 47% and the IC50 is above 10 µM. Further, at BACE1, the IC50 came out at 2.8 ± 0.5 µM.
`O=C(Nc1ccc2c(c1)c(OCc1cccc(Cl)c1Cl)nn2Cc1cccc2ccccc12)N1CCCC1` [Compound 12]: the “ORAC” value in experiment [1] was 0.5 ± 0.1 μmol of Trolox equivalents/μmol of tested compound. For the same molecule, the IC50 (in experiment [2]; at BuChE from human serum; against BACE1) was above 10 µM throughout. Further, the inhibition at 10 µM at BACE1 was 43%.
As for `Nc1ccc2c(c1)c(OCc1ccccc1)nn2Cc1ccccc1` [Compound 27, 5-amino-1-benzyl-3-(benzyloxy)indazole], the “ORAC” value in experiment [1] was 0.9 ± 0.1 μmol of Trolox equivalents/μmol of tested compound. Besides, the IC50 in experiment [2] was 8.6 ± 0.5 µM; at BuChE from human serum it was above 10 µM; at BACE1, above 10 µM. The “BuChE percentage of inhibition at 10 µM” value at BuChE from human serum is “very slight inhibition”. Also, the inhibition at 10 µM on BuChE from human serum is 21%; at BACE1, 2%.
On to `Nc1ccc2c(c1)c(OCc1ccc3ccccc3c1)nn2Cc1ccc2ccccc2c1` [Compound 28], for which the “ORAC” value in experiment [1] is given as 0.3 ± 0.1 μmol of Trolox equivalents/μmol of tested compound. The molecule also had an IC50 in experiment [2] of 4.1 ± 0.2 µM. In addition, on BuChE from human serum, the “BuChE percentage of inhibition at 10 µM” value is “very slight inhibition”, the inhibition at 10 µM was 24% and the IC50 is above 10 µM. For the same molecule, the IC50 on BACE1 amounted to 8.9 ± 0.5 µM.
For the molecule `Nc1ccc2c(c1)c(OCc1ccccc1)nn2Cc1cccc(Cl)c1Cl` [Compound 29], the “ORAC” value in experiment [1] was 0.7 ± 0.1 μmol of Trolox equivalents/μmol of tested compound. The IC50 (in experiment [2]; on BuChE from human serum; against BACE1) was above 10 µM each time.
For the molecule `Nc1ccc2c(c1)c(OCc1cccc(Cl)c1Cl)nn2Cc1cccc2ccccc12` [Compound 30], in experiment [1], the “ORAC” value is listed as 0.8 ± 0.1 μmol of Trolox equivalents/μmol of tested compound. For the same molecule, the inhibition at 10 µM in experiment [2] came out at 36%; on BACE1, 79%. The IC50 (in experiment [2]; against BuChE from human serum) was above 10 µM in each case.
For the molecule `Nc1ccc2c(c1)c(OCc1ccc3ccccc3c1)nn2Cc1ccc(Cl)c(Cl)c1` [Compound 31], the “ORAC” value in experiment [1] was 0.63 ± 0.04 μmol of Trolox equivalents/μmol of tested compound. The IC50 in experiment [2] is 6 ± 0.5 µM; on BuChE from human serum it was above 10 µM. Besides, the “BuChE percentage of inhibition at 10 µM” value on BuChE from human serum was “very slight inhibition”. Also, the inhibition at 10 µM was found to be 30% on BuChE from human serum and 69% on BACE1.
As for `Nc1ccc2c(c1)c(OCc1cccc3ccccc13)nn2Cc1ccccc1` [Compound 32], in experiment [1], the “ORAC” value was 1.0 ± 0.1 μmol of Trolox equivalents/μmol of tested compound. The 50% inhibitory concentration (IC50) (in experiment [2]; against BuChE from human serum; on BACE1) was above 10 µM in each case.
In the case of `Nc1ccc2c(c1)c(OCc1cccc3ccccc13)nn2Cc1ccc(Cl)cc1` [Compound 33], in experiment [1], the “ORAC” value is 1.0 ± 0.1 μmol of Trolox equivalents/μmol of tested compound. In addition, the values for the IC50 (in experiment [2]; on BuChE from human serum; against BACE1) were above 10 µM, above 10 µM and 5.8 ± 0.5 µM, respectively.
For the molecule `Nc1ccc2c(c1)c(OCc1cccc3ccccc13)nn2Cc1ccc(Cl)c(Cl)c1` [Compound 34], in experiment [1], the “ORAC” value is 0.33 ± 0.05 μmol of Trolox equivalents/μmol of tested compound. Moreover, in experiment [2], half-maximal inhibition (IC50) was put at 3.5 ± 0.6 µM. Also, at BuChE from human serum, the “BuChE percentage of inhibition at 10 µM” value is “very slight inhibition”, the inhibition at 10 µM was found to be 32% and the IC50 is above 10 µM. The inhibition at 10 µM at BACE1 worked out at 72%.
As to `COc1cc2c(cc1OC)C(=O)C(CC1CCN(Cc3ccccc3)CC1)C2` (centres unmarked) [donepezil, reference compound], the “BuChE inhibition mode of action (in words)” value on BuChE is “mixed type”.

The term IC50 denotes the point on the concentration scale where inhibition reaches its midpoint. Broadly, the inhibition is the relative decrease from the control value, in per cent.
